Where two headings read alike, the source gives them in different places.
Assays:
Brd2(BD1) = biological target: T1, Brd2(BD1) (Homo sapiens, UniProt P25440); test: HTRF BET selectivity profile, Brd2(BD1); type: binding; details: for IC50: read-out: Brd2(BD1) IC50; for Ratio 2-1 vs 2-2: selectivity Brd2(BD1) vs Brd2(BD2), HTRF IC50
T1 construct: GST tagged bromodomain proteins were purchased from BPS Bioscience; purchased BPS Bioscience
Method: (§1) HTRF assays were performed in white 384 Well Small Volume™ HiBase Polystyrene Microplates (Greiner) with a total working volume of 20 μL. Compounds were dispensed, with 100 nL per well (0.5% final DMSO), from a concentration stock of 10 mM in 100% DMSO and with serial DMSO dilutions, using an Echo® 550 robot from the Access Labcyte platform (Labcyte) and based on the transfer of liquid by acoustic wave. Then, 19.5 μL of buffer is added, using a Multidrop Combi (Thermo Fisher Scientific). […] All HTRF reagents (donor and acceptor) were purchased from CisBio Bioassays and reconstituted according to the supplier protocols. The peptide was purchased from Genic Bio Synthetic. The BRD4(1) protein was produced and purified in the laboratory.
(§2) Percentage of inhibition was calculated using the following equation: % inhibition=[(compound signal)−(min signal)]/[(max signal)−(min signal)]*100, where ‘max signal’ is the signal ratio with the compound vehicle alone (DMSO) and ‘min signal’ the signal ratio without peptide.
(§3) Selectivity profiles of bromodomain inhibitors were performed as described in HTRF screen section. […] HTRF detection reagents (EPIgeneous™ Binding Domain kits) were purchased from Cisbio Bioassays and used according to supplier's protocol. GST tagged bromodomain proteins were purchased from BPS Bioscience and histone peptide from Genic Bio Synthetic.

Brdt(BD1) = biological target: T2, Brdt(BD1) (Homo sapiens, UniProt Q58F21); test: HTRF BET selectivity profile, Brdt(BD1); type: binding
T2 construct: GST tagged bromodomain proteins were purchased from BPS Bioscience; purchased BPS Bioscience
Method: (§4) HTRF assays were performed in white 384 Well Small Volume™ HiBase Polystyrene Microplates (Greiner) with a total working volume of 20 μL. Compounds were dispensed, with 100 nL per well (0.5% final DMSO), from a concentration stock of 10 mM in 100% DMSO and with serial DMSO dilutions, using an Echo® 550 robot from the Access Labcyte platform (Labcyte) and based on the transfer of liquid by acoustic wave. Then, 19.5 μL of buffer is added, using a Multidrop Combi (Thermo Fisher Scientific). Finally, for each assay, 200 nL of master mix (protein+donor+acceptor) and 200 nL of peptide Is added in the assay wells according to the final concentration and buffer described in Table 3, using the Echo® 550 robot (Labcyte). The IC50 measurements were performed in triplicates (Table 2 and 3). All HTRF reagents (donor and acceptor) were purchased from CisBio Bioassays and reconstituted according to the supplier protocols. The peptide was purchased from Genic Bio Synthetic. The BRD4(1) protein was produced and purified in the laboratory. HTRF signals were measured, after a final incubation (3 h or 6 h or overnight at room temperature or 4° C., according to the bromodomain), using a PHERAstar FS (BMG Labtech) with an excitation filter at 337 nm and fluorescence wavelength measurement at 620 and 665 nm, an integration delay of 60 μs and an integration time of 500 μs. Results were analyzed with a two-wavelengths signal ratio: [intensity (665 nm)/intensity (620 nm)]*104.
as §2, §3

Brd4(BD2) = biological target: T3, Brd4(BD2) (Homo sapiens, UniProt O60885); test: HTRF BET selectivity profile, Brd4(BD2); type: binding
T3 construct: GST tagged bromodomain proteins were purchased from BPS Bioscience; purchased BPS Bioscience
Method: as §4, §2, §3

Brd3(BD2) = biological target: T4, Brd3(BD2) (Homo sapiens, UniProt Q15059); test: HTRF BET selectivity profile, Brd3(BD2); type: binding
T4 construct: GST tagged bromodomain proteins were purchased from BPS Bioscience; purchased BPS Bioscience
T4 sequence (Q15059 306-415 limits assumed): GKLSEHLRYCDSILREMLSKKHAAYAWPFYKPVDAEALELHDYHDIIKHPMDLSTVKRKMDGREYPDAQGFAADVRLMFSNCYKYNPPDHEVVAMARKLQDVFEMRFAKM
Method: as §4, §2, §3

Brd2(BD2) = biological target: T5, Brd2(BD2) (Homo sapiens, UniProt P25440); test: HTRF BET selectivity profile, Brd2(BD2); type: binding; details: read-out: Brd2(BD2) IC50
T5 construct: GST tagged bromodomain proteins were purchased from BPS Bioscience; purchased BPS Bioscience
T5 sequence (P25440 344-453 limits assumed): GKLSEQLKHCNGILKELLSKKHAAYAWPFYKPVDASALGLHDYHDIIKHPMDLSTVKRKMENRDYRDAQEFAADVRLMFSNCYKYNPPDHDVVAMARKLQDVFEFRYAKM
Method: as §1, §2, §3

BRD4(BD1) [1] = biological target: T6, BRD4(BD1) (Homo sapiens, UniProt O60885); test: Isothermal Titration Calorimetry; type: binding; details: ITC; read-out: Binding affinity (Kd) to BRD4(1) by Isothermal Titration Calorimetry
Method: FIG. 1. Isothermal Titration Calorimetry (ITC) of 43c. Thermogram (top) and non-linear least squares fit model of the integrated data (bottom) at 15° C. of Brd4 (BD1) […] as a function of the molar ratio of ligand to the protein.
ITC was used to evaluate the thermodynamics parameters of the binding between BRD4 (BD1) and the selected compounds. Titrations were carried out on a MicroCal ITC200 microcalorimeter (GE Healthcare, Piscataway, N.J.). Each experiment was designed using a titrant concentration (protein in the syringe generally between 100 and 400 μM) set 10 to 15 times the analyte concentration (compound in the cell generally between 10 and 40 μM) and using 13 injections at 25° C. A first small injection (generally 0.2 μL) was included in the titration protocol in order to remove air bubbles trapped in the syringe prior titration. Raw data were scaled after setting the zero to the titration saturation heat value. Integrated raw ITC data were fitted to a one site non-linear least squares fit model using the MicroCal Origin plugin as implemented in Origin 7 (Origin Lab). Finally, ΔG and TΔS values were calculated from the fitted ΔH and KA values using the equations ΔG=−R.T.inKA and ΔG=ΔH−TΔS.

Jurkat cells = test: Cell Titer-Glo cell viability assay, Jurkat; type: cell-based; details: Homo sapiens, 72 h, mean of three experiments, NA = IC50 > maximal concentration used
Method: (§5) The human leukemia cell line Jurkat (ATCC® TIB-152) and Molm14 was maintained in RPMI-1640 medium or MEMα, respectively and supplemented both with 10% FBS at 37° C. and 5% CO2.
(§6) In antiproliferative assays, compounds were assayed for their growth inhibiting activity towards the described cancer cell lines using the Cell Titer-Glo Luminescent Cell Viability Assay as described by the manufacturer (Promega Corporation). Briefly, 10.000 cells were plated onto 96 well-plates (white with clear bottom (3610, Corning Costar)) in 90 μL media per well immediately before assay. 10 μL of compounds were added at different concentrations (ranging from 50 μM to 6 nM) to each well and cell cultures were incubated 37° C. during 72 h. Vehicle (DMSO) was used as negative control, JQ1 (a pan-BET inhibitor) was used as positive control and all compounds were tested in constant percentage of DMSO (1%). After addition of 50 μL Cell Titer-GLO, shaking 2 minutes and incubating at room temperature 10 minutes, the Luminescence was measured using a Centro luminometer LB960 (Berthold). Dose-response curves were generated and effective dose 50 values (EC50) were calculated using non-linear regression analysis (Graph Pad Prism).

61 bromodomains = test: Thermal shift assay selectivity profile on 61 bromodomains; type: binding; details: compound at 25 μM
Method: FIG. 3. Thermal Shift Assay (TSA) of 43c. The evaluation was performed on 61 bromodomains. A cut-off at +/−3.5° C. was set.
TSA “Bromoscan” assays (Reaction Biology) were performed in 384 well RT-PCR plate (BioRad) with a total working volume of 15 μL. The “BromoMelT™, containing the 61 GST- or His-tagged-bromodomains, SYPRO® Orange and a mix compounds as control, was purchased from Reaction Biology. For each point, 3 μL of protein (1×) and 12 μL master mix (buffer+SYPRO® Orange+compound at 25 μM or control mix compounds or DMSO (0.5%)) were mixed in plate. The plate was placed in a CFX384 RTQPC (BioRad), and heated 10 seconds at 25° C., then the temperature was increased from 25° C. to 90° C., by increment of 0.5° C. every 30 seconds. The fluorescence was recorded using FRET filters.

BRD4(BD1) [2] = biological target: T6, BRD4(BD1); test: HTRF assay, BRD4(BD1)/histone peptide interaction; type: binding; set-up: made in house; details: for IC50: HTRF; for Ratio 4-1 vs 4-2: selectivity Brd4(BD1) vs Brd4(BD2), HTRF IC50
Brd3(BD1) = Brd3(BD1) (Homo sapiens, UniProt Q15059); test: HTRF BET selectivity profile, Brd3(BD1); type: binding; set-up: GST tagged bromodomain proteins were purchased from BPS Bioscience; purchased BPS Bioscience; details: for Ratio 3-1 vs 3-2: selectivity Brd3(BD1) vs Brd3(BD2), HTRF IC50
Brd3(BD1), sequence (Q15059 34-140 limits assumed): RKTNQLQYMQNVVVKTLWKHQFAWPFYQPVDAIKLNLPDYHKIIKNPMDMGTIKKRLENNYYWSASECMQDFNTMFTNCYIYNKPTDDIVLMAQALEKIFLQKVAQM
Method: as §1, §2, §3

Molm14 cells = test: Cell Titer-Glo cell viability assay, Molm14; type: cell-based; details: Homo sapiens, MOLM-14, 72 h, mean of three experiments, NA = IC50 > maximal concentration used
Method: as §5, §6

[3] = mean of three experiments, NA = IC50 > 50 μM, read-out: Brd4(8D1) IC50
[4] = triplicates, NA = IC50 > maximal concentration of compound used

T1 sequence (P25440 74-180 limits assumed): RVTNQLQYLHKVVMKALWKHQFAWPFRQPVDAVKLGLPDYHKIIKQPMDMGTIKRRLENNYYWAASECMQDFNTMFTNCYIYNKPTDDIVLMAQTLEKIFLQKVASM

Structure (SMILES)	IC50 (Brd2(BD1))	Ratio 2-1 vs 2-2 (Brd2(BD1))	IC50 (Brdt(BD1))	IC50 (Brd4(BD2))	IC50 (Brd3(BD2))	IC50 (Brd2(BD2))	Kd (BRD4(BD1) [1])	IC50 (Jurkat cells)	Bromodomain selectivity profile by thermal shift assay (61 bromodomains)	IC50 (BRD4(BD1) [2]; [3])	IC50 (BRD4(BD1) [2]; read-out: IC50 on BRD4(BD1) activity (concentration that inhibits protein-protein interaction by 50%), triplicates, NA = IC50 > maximal concentration of compound used)	Ratio 4-1 vs 4-2 (BRD4(BD1) [2])	IC50 (Brd3(BD1))	Ratio 3-1 vs 3-2 (Brd3(BD1))	IC50 (Molm14 cells)	IC50 (BRD4(BD1) [2]; [4])
CCn1cnc2c1c(=O)[nH]c(=O)n2Cc1ccc(CNS(=O)(=O)c2ccc3c(c2)CCCC(=O)N3)cc1 [Compound 27c]	0.336 µM	5	0.356 µM	2.78 µM	3.47 µM	1.61 µM	0.129 µM	39.5 µM	pan-BET selective	0.283 µM	0.283 µM	10	0.456 µM	8		
CCn1cnc2c1c(=O)[nH]c(=O)n2Cc1ccc(CNS(=O)(=O)c2cccc(-c3ccccc3)c2)cc1 [Compound 29c]	5.47 µM	3	7.44 µM	12.2 µM	18.9 µM	14.7 µM	1.1 µM	6.9 µM		0.814 µM		15	1.6 µM	12	8.9 µM	0.814 µM
CCn1cnc2c1c(=O)[nH]c(=O)n2Cc1ccc(CNS(=O)(=O)c2ccn(-c3ccccc3)n2)cc1 [Compound 24b]	3.33 µM	2	6.26 µM	5.85 µM	12 µM	6.05 µM		14.2 µM		0.846 µM		7	1 µM	12	10.2 µM	0.846 µM
CCn1cnc2c1c(=O)[nH]c(=O)n2Cc1ccc(CNS(=O)(=O)c2cc3ccccc3s2)cc1 [Compound 25b]	1.38 µM	8	7.44 µM	12.8 µM	12.4 µM	10.5 µM		5.2 µM		0.779 µM		16	1.54 µM	8	11.1 µM	0.779 µM
CCn1cnc2c1c(=O)[nH]c(=O)n2Cc1ccc(CNS(=O)(=O)c2ccc3scnc3c2)cc1 [Compound 25c]	4.18 µM	7	14 µM	21.2 µM	17.4 µM	23.5 µM		6.1 µM		1.59 µM		13	4.77 µM	4	14.8 µM	1.6 µM
CCn1cnc2c1c(=O)[nH]c(=O)n2Cc1ccc(CNS(=O)(=O)c2ccc(-c3cc(C)n[nH]3)s2)cc1 [Compound 25a]	2.1 µM	2	3.47 µM	4.05 µM	3.17 µM	3.2 µM		13.5 µM		0.284 µM		14	0.507 µM	6	9.9 µM	0.284 µM
